Test results: patent publication US7074789B2, “Kinase inhibitors” (Amgen Inc., priority 1999, dated 2006)

Columns and labels:
Type in all cases: biochemical
Itk = biological target: T1, Itk (Homo sapiens, UniProt Q08881); assay: Kinase inhibition assay (33P transfer), Itk; details: Table 3; read-out: Itk-1
T1 construct: Kinases are expressed as either kinase domains or full length constructs; made in house
T1 sequence (Q08881 1-620): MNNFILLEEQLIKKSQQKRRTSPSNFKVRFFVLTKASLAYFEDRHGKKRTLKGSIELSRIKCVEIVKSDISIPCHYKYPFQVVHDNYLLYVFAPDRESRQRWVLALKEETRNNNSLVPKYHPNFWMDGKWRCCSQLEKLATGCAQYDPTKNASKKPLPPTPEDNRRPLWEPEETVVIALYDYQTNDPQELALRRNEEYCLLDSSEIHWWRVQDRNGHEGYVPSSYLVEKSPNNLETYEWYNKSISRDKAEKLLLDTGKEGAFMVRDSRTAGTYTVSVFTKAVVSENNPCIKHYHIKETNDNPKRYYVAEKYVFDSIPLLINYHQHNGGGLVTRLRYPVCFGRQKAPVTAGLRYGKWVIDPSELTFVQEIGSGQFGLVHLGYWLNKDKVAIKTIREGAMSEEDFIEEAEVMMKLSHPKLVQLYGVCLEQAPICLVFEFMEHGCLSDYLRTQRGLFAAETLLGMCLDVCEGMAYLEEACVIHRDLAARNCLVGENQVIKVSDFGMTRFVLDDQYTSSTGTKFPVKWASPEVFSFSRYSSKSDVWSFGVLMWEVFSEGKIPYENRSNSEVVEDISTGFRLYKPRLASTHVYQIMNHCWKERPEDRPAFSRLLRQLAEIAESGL
How it was run: (§1)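 Radiometric format: recombinant tagged kinase (catalytic domain or whole protein, sometimes combined with regulatory polypeptides) phosphorylates immobilised poly(Glu,Tyr) 4:1 or poly(Arg,Ser) 3:1 using [33P]ATP. Wells are washed in 0.5% phosphoric acid, then counted. IC50 is taken where substrate labelling falls by half.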

Lck = biological target: T2, Lck (Homo sapiens, UniProt P06239); assay: Kinase inhibition assay (33P transfer), Lck; details: Table 3; read-out: Lck-1
T2 construct: Kinases are expressed as either kinase domains or full length constructs; made in house
How it was run: (§2)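 Each kinase, expressed as a GST- or polyHis-tagged domain or full-length protein, phosphorylated plate-attached poly(Glu,Tyr) 4:1 or poly(Arg,Ser) 3:1 using 33P-ATP. Bound radioactivity was measured by scintillation after a 0.5% phosphoric acid wash.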

AKT = biological target: T3, AKT (Homo sapiens, UniProt Q9Y243); assay: Kinase inhibition assay (33P transfer), AKT; details: Table 2, kinase inhibition class; read-out: AKT3-1
T3 construct: Kinases are expressed as either kinase domains or full length constructs; made in house
How it was run: as §2

Kdr = biological target: T4, Kdr (Homo sapiens, UniProt P35968); assay: Kinase inhibition assay (33P transfer), Kdr; details: Table 3; read-out: KDR-1
T4 construct: Kinases are expressed as either kinase domains or full length constructs; made in house
How it was run: as §2

IGFR-1 = biological target: T5, IGFR-1 (Homo sapiens, UniProt P08069); assay: Kinase inhibition assay (33P transfer), IGFR-1; details: Table 2, kinase inhibition class
T5 construct: Kinases are expressed as either kinase domains or full length constructs; made in house

c-Met = biological target: T6, c-Met (Homo sapiens, UniProt P08581); assay: Kinase inhibition assay (33P transfer), c-Met; details: Table 2, kinase inhibition class; read-out: Met-1
T6 construct: Kinases are expressed as either kinase domains or full length constructs; made in house
How it was run: as §1

EGFR = biological target: T7, EGFR (Homo sapiens, UniProt P00533); assay: Kinase inhibition assay (33P transfer), EGFR; details: Table 2, kinase inhibition class; read-out: EGFR-1
T7 construct: Kinases are expressed as either kinase domains or full length constructs; made in house
How it was run: as §1

Zap-70 = biological target: T8, Zap-70 (Homo sapiens, UniProt P43403); assay: Kinase inhibition assay (33P transfer), Zap-70; details: Table 3; read-out: Zap-1
T8 construct: Kinases are expressed as either kinase domains or full length constructs; made in house
T8 sequence (P43403 1-619): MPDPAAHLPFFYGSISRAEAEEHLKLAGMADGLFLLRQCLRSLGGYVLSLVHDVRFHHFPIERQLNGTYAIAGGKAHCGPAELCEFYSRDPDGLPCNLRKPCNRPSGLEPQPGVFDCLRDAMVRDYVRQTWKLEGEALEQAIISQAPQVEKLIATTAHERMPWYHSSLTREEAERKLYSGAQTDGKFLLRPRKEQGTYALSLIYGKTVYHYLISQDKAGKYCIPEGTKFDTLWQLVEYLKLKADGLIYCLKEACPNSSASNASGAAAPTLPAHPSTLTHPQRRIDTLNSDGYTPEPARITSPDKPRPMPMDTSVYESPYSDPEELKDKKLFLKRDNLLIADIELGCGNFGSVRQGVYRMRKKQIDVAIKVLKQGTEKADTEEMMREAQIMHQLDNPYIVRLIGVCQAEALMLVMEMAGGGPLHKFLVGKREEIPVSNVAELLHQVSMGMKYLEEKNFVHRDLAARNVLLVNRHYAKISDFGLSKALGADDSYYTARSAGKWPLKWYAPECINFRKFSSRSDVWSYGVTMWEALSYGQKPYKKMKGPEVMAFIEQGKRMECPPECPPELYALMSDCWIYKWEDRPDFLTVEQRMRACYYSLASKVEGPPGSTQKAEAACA
How it was run: as §2

T7 sequence (P00533 25-1210, species assumed): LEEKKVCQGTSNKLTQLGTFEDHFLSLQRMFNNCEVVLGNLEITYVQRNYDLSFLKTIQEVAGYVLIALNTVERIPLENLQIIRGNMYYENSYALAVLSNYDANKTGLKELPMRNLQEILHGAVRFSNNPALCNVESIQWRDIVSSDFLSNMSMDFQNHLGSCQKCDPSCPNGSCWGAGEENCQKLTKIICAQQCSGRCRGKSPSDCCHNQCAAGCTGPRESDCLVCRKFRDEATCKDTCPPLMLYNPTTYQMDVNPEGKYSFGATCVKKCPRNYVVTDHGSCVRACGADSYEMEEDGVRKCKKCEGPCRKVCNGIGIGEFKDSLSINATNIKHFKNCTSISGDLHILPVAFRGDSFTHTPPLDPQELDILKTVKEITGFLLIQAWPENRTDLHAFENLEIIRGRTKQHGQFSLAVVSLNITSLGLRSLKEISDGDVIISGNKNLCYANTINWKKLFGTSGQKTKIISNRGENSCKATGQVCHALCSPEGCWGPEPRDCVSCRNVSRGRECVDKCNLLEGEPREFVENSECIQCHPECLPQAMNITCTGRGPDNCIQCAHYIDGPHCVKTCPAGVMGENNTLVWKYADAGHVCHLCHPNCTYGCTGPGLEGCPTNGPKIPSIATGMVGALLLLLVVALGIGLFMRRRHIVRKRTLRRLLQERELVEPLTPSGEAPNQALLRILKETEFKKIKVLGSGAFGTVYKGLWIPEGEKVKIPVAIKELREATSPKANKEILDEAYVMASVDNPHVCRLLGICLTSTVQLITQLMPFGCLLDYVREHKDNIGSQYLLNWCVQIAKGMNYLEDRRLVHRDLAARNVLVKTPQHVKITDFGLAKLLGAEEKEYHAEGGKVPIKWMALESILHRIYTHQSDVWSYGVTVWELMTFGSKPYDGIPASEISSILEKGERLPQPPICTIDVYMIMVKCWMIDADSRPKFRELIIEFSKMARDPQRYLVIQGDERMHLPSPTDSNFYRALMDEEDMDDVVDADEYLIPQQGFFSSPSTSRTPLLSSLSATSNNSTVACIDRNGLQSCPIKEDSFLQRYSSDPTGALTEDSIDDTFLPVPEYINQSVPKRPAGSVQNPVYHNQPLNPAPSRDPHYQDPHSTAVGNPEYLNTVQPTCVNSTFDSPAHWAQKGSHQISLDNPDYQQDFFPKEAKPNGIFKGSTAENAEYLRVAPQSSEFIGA
T2 sequence (P06239 whole entry, species assumed, the tested form may be a part): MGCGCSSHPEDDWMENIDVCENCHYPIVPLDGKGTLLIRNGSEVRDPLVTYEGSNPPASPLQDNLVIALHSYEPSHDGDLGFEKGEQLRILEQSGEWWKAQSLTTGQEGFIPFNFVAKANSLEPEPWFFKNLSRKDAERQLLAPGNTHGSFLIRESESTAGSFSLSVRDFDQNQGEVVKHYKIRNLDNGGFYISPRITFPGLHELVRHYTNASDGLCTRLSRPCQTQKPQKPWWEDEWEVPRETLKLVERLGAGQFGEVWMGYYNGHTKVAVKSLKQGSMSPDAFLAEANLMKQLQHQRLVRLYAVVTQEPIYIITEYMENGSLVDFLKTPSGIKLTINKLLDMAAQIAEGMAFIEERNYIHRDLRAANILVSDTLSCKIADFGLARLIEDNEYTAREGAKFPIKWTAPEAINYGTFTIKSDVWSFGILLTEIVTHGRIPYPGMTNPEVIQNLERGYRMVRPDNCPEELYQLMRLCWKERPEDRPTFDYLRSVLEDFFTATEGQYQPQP
T6 sequence (P08581 25-1390): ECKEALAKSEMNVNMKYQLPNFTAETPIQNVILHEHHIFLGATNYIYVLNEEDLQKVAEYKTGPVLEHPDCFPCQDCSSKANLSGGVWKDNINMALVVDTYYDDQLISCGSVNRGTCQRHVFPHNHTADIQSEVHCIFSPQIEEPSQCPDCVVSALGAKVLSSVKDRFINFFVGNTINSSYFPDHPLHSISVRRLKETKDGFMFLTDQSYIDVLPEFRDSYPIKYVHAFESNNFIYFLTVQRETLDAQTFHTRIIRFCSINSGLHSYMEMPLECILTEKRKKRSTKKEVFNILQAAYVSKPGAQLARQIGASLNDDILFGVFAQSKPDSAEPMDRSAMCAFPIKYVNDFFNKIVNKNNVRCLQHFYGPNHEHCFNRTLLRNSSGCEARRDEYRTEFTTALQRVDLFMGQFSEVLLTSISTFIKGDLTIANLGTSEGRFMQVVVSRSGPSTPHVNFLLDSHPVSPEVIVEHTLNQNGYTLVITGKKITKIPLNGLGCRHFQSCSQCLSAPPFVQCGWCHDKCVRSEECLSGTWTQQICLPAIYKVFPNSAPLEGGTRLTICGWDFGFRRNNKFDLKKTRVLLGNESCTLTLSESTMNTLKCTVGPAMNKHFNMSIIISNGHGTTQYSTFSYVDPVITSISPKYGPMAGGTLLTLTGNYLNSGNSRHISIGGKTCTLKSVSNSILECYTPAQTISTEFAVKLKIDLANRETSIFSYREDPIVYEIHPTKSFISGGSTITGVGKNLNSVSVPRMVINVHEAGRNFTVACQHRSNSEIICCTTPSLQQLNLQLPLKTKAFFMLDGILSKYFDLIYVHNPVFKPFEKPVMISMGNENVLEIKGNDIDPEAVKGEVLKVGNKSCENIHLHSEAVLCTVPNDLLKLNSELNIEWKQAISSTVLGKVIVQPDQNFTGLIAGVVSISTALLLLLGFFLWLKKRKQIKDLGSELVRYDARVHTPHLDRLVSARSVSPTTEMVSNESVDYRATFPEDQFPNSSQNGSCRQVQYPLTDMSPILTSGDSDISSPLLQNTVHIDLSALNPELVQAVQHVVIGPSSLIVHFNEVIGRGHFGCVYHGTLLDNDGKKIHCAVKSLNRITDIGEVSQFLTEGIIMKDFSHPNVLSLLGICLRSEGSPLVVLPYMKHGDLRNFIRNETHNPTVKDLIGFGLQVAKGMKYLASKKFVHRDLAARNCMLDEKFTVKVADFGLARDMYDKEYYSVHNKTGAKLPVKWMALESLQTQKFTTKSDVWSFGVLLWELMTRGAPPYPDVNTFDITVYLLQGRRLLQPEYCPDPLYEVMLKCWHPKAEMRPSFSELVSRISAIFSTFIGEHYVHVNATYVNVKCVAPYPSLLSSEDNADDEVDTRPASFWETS
T3 sequence (Q9Y243 whole entry, the tested form may be a part): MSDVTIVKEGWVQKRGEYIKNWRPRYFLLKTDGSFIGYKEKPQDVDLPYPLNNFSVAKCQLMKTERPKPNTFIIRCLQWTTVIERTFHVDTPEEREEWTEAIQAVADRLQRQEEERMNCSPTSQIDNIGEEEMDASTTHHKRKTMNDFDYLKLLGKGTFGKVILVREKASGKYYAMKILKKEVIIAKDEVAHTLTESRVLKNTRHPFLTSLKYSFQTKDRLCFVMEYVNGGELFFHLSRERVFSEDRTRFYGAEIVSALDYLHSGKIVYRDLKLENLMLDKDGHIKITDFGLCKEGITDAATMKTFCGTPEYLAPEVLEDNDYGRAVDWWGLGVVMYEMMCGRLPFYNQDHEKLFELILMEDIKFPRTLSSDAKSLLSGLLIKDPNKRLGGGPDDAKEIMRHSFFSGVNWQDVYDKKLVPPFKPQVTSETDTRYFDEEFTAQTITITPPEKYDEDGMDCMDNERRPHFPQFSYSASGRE
T4 sequence (P35968 20-1356, species assumed): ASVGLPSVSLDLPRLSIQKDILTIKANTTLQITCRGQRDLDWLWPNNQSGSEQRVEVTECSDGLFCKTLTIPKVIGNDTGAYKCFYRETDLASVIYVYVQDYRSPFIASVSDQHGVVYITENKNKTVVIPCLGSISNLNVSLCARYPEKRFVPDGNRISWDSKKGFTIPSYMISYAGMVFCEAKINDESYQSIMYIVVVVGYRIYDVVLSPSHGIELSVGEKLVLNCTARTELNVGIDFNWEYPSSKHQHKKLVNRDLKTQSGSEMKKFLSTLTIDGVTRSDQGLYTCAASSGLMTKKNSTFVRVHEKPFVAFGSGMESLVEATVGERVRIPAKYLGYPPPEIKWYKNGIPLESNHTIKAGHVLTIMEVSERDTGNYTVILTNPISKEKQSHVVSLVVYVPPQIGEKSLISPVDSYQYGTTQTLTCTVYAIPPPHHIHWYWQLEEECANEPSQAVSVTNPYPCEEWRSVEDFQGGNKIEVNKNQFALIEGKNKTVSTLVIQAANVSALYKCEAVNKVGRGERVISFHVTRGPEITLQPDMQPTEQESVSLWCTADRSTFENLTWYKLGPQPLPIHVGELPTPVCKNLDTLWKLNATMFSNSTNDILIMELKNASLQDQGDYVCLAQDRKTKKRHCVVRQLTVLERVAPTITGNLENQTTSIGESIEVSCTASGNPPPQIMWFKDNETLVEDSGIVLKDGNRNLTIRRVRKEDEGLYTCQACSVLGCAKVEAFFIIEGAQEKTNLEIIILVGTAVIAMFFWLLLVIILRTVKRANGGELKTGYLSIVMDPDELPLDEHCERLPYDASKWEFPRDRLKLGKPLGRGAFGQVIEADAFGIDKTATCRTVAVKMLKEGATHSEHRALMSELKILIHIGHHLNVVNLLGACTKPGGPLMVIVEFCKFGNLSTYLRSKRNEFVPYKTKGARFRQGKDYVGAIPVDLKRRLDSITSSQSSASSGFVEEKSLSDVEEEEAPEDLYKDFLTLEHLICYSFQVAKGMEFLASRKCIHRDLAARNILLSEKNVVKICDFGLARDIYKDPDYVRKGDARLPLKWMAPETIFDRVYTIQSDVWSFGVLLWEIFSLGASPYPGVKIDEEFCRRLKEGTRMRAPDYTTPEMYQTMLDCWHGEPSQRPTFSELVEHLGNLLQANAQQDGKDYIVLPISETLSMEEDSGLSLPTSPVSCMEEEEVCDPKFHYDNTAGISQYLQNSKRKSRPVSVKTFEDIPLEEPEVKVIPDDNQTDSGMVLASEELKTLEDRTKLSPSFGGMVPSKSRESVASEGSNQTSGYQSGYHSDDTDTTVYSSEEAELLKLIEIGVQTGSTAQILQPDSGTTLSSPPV

IC50 (Itk)	IC50 (Lck)	IC50 (AKT)	IC50 (Kdr)	IC50 (IGFR-1)	IC50 (c-Met)	IC50 (EGFR)	IC50 (Zap-70)	Structure (SMILES)
> 15.1 µM	> 15.1 µM	> 15.1 µM	8.04 to 11.7 µM	> 15.1 µM	11.7 to 15.1 µM	> 15.1 µM	> 15.1 µM	c1csc(-c2ncnc(Nc3ccc4c(c3)OCO4)n2)c1 [Compound 1072]
> 13.7 µM	> 13.7 µM	> 13.7 µM	> 13.7 µM	> 13.7 µM	> 13.7 µM	> 13.7 µM	> 13.7 µM	COc1cc(C)c(Nc2ncnc(-c3cccs3)n2)cc1OC [Compound 359]
> 10.6 µM	> 10.6 µM	> 10.6 µM	5.65 to 8.25 µM	> 10.6 µM	> 10.6 µM	> 10.6 µM	> 10.6 µM	COc1cc(Nc2ncnc(N3CCc4ccc([N+](=O)[O-])cc43)n2)cc(OC)c1OC [Compound 191]
> 15.2 µM	> 15.2 µM	> 15.2 µM	1.35 to 8.09 µM	> 15.2 µM	> 15.2 µM	> 15.2 µM	> 15.2 µM	COc1cc(Nc2ncnc(Cl)n2)cc(OC)c1OC [Compound 924, 2-chloro-4-(3′,4′,5′-trimethoxyanilino)-1,3,5-triazine]
> 15.6 µM	> 15.6 µM	> 15.6 µM	> 15.6 µM	> 15.6 µM	> 15.6 µM	> 15.6 µM	> 15.6 µM	Clc1cccc(Nc2ncnc(-c3cccs3)n2)c1 [Compound 360]
> 9.67 µM	5.16 to 7.52 µM	> 9.67 µM	0.859 to 5.16 µM	> 9.67 µM	> 9.67 µM	> 9.67 µM	> 9.67 µM	COc1cc(Nc2ncnc(-n3c(NCCCCO)nc4ccccc43)n2)cc(OC)c1OC [Compound 392]
> 16.9 µM	> 16.9 µM	> 16.9 µM	> 16.9 µM	> 16.9 µM	> 16.9 µM	> 16.9 µM	> 16.9 µM	Fc1ccccc1Nc1ncnc(-c2ccccc2)n1 [Compound 20]
> 16.2 µM	1.44 to 8.66 µM	> 16.2 µM	> 16.2 µM	> 16.2 µM	> 16.2 µM	> 16.2 µM	> 16.2 µM	COc1cc(Nc2ncnc(N)n2)cc(OC)c1OC [Compound 925]
> 17.6 µM	> 17.6 µM	> 17.6 µM	> 17.6 µM	> 17.6 µM	> 17.6 µM	> 17.6 µM	> 17.6 µM	c1csc(-c2ncnc(Nc3ccncc3)n2)c1 [Compound 363]
> 13.6 µM	> 13.6 µM	> 13.6 µM	> 13.6 µM	> 13.6 µM	> 13.6 µM	> 13.6 µM	> 13.6 µM	COc1cc(Nc2ncnc(N3CCCC3)n2)cc(OC)c1OC [Compound 181]
> 10.3 µM	> 10.3 µM	> 10.3 µM	5.51 to 8.04 µM	> 10.3 µM	> 10.3 µM	> 10.3 µM	> 10.3 µM	COc1cc(Nc2ncnc(-n3cc(OC(C)=O)c4ccccc43)n2)cc(OC)c1OC [Compound 205]
> 15.1 µM	> 15.1 µM	> 15.1 µM	> 15.1 µM	> 15.1 µM	> 15.1 µM	> 15.1 µM	> 15.1 µM	NC(=O)c1cccc(Nc2ncnc(-c3cccs3)n2)c1 [Compound 358]
> 13.3 µM	> 13.3 µM	> 13.3 µM	1.18 to 7.07 µM	> 13.3 µM	> 13.3 µM	> 13.3 µM	> 13.3 µM	COc1cc(Nc2ncnc(-c3cccnc3)n2)cc(OC)c1OC [Compound 219]
> 13.7 µM	> 13.7 µM	> 13.7 µM	> 13.7 µM	> 13.7 µM	> 13.7 µM	> 13.7 µM	> 13.7 µM	CC(C)(C)OC(=O)NCCCNc1ncnc(-c2ccccc2)n1 [Compound 17]
> 9.29 µM	> 9.29 µM	7.22 to 9.29 µM	4.95 to 7.22 µM	> 9.29 µM	> 9.29 µM	> 9.29 µM	> 9.29 µM	CC(C)(C)OC(=O)Nc1ccc(Nc2ncnc(Nc3ccc(OCc4ccccc4)cc3)n2)cc1 [Compound 162]
> 12.5 µM	> 12.5 µM	> 12.5 µM	> 12.5 µM	> 12.5 µM	> 12.5 µM	> 12.5 µM	> 12.5 µM	c1ccc(COc2cccc(Nc3ncnc(-c4cccs4)n3)c2)cc1 [Compound 361]
> 14.7 µM	> 14.7 µM	> 14.7 µM	> 14.7 µM	> 14.7 µM	> 14.7 µM	> 14.7 µM	> 14.7 µM	COC(=O)c1ccc(Nc2ncnc(-c3ccccc3)n2)cc1 [Compound 163]
> 10 µM	> 10 µM	> 10 µM	0.892 to 5.35 µM	> 10 µM	> 10 µM	> 10 µM	> 10 µM	FC(F)C(F)(F)Oc1cccc(Nc2ncnc(-c3ccnc(N4CCCCC4)c3)n2)c1 [Compound 346]
> 13.3 µM	1.18 to 7.07 µM	10.3 to 13.3 µM	10.3 to 13.3 µM	> 13.3 µM	10.3 to 13.3 µM	> 13.3 µM	> 13.3 µM	c1csc(-c2ncnc(Nc3ccc(N4CCOCC4)cc3)n2)c1 [Compound 349]
> 18.2 µM	> 18.2 µM	> 18.2 µM	14.2 to 18.2 µM	> 18.2 µM	> 18.2 µM	> 18.2 µM	9.73 to 14.2 µM	Nc1nc2ccccc2n1-c1ncnc(Cl)n1 [Compound 1029]
> 16.1 µM	> 16.1 µM	> 16.1 µM	> 16.1 µM	> 16.1 µM	> 16.1 µM	> 16.1 µM	> 16.1 µM	N#Cc1ccc(Nc2ncnc(-c3cccs3)n2)cc1 [Compound 356]
> 15.8 µM	> 15.8 µM	> 15.8 µM	> 15.8 µM	> 15.8 µM	> 15.8 µM	> 15.8 µM	> 15.8 µM	COc1cccc(Nc2ncnc(-c3cccs3)n2)n1 [Compound 362]
> 19.5 µM	> 19.5 µM	> 19.5 µM	> 19.5 µM	> 19.5 µM	> 19.5 µM	> 19.5 µM	> 19.5 µM	OCCCNc1ncnc(-c2ccccc2)n1 [Compound 971]
> 13.1 µM	1.16 to 6.97 µM	> 13.1 µM	6.97 to 10.2 µM	> 13.1 µM	10.2 to 13.1 µM	> 13.1 µM	> 13.1 µM	COc1cc(Nc2ncnc(-c3cccs3)n2)cc(OC)c1OC [Compound 217]
> 10.7 µM	0.947 to 5.68 µM	> 10.7 µM	< 0.947 µM	0.947 to 5.68 µM	0.947 to 5.68 µM	> 10.7 µM	> 10.7 µM	COc1cc(Nc2ncnc(-c3ccnc(N4CCCCC4)c3)n2)cc(OC)c1OC [Compound 345]
